# Data as given in patent publication US9398761B2, “Transgenic animal model of mood disorders” (BRAINCO BIOPHARMA, S.L., priority 2012, dated 2016).
# “Also recorded” adds a separate entry of the source.
# Tested on: wild-type (WT) and PTN transgenic (TG) mice
# Assay: Novelty Suppressed Feeding Test after chronic fluoxetine treatment
# Type: in vivo, mouse
# Details: 4 weeks; for Latency to feed, treated versus untreated: fluoxetine in drinking water 160 mg/l, one-way ANOVA on rank-transformed data
# Method: Novelty suppressed feeding test assesses anxiety and/or depression by measuring the latency of an animal to approach and eat food in a novel environment following chronic treatment with antidepressants. Mice (WT=14 and TG=14) were separated in two experimental groups: Without fluoxetine treatment and with fluoxetine treatment. The Fluoxetine was delivered ad libitum in the drinking water at a concentration of 160 mg/l (approximately doses of 20-25 mg/kg/day) during 4 weeks. Mice were weighed and food was removed from their cage. Twenty four hr after removal of food, mice were transferred to the testing room, placed in a clean holding cage and allowed to habituate for at least 30 min. The testing apparatus consisted of a clear Plexiglas open-field (50×50×25 cm) under an aversive condition (100 lux luminosity). The floor was covered with 2 cm of corncob bedding. A small piece of mouse chow was placed in the center of the arena. At the start of the experiment, each mouse was placed in the corner of the testing area, and the time to the first feeding event was recorded. After all mice from a single cage were tested, mice were returned to their home cage. A longer latency to feed reflects an anxiety-like behaviour. […] Measurement of Latency to feed were rank-transformed (Conover and Iman, 1981) and subjected to a Two-way ANOVA having two levels of genotype (wild-type or WT and transgenic or TG) and two levels of treatment (without fluoxetine or −Flx and with fluoxetine or +Flx).
smiles,measurement,setting,value
CNCCC(Oc1ccc(C(F)(F)F)cc1)c1ccccc1 (stereo not shown) [Fluoxetine],"Sensitivity to the effect of fluoxetine, Tg compared with Wt","Novelty Suppressed Feeding Test, chronic treatment",more sensitive
same,"Latency to feed, treated versus untreated",TG (PTN-overexpressing) mice,significant difference; also recorded: reversed
same,"Latency to feed, main effect of treatment (two-way ANOVA)","WT and TG mice, fluoxetine in drinking water 160 mg/l (approx. 20-25 mg/kg/day), with vs without fluoxetine",significant
same,"Latency to feed, treated versus untreated",WT mice,No significant differences
